The results in this text go back to patent US9694016B2 (Novartis AG, priority 2013, dated 2017).

Structures are written as SMILES. pIC50: −log10 of the molar value.

One assay deals with b-Raf (V600E) (Homo sapiens (Human), UniProt P15056, V600E). As to conditions: read-out: b-Raf IC-50.
Chain of b-Raf (V600E) (P15056 whole entry V600E): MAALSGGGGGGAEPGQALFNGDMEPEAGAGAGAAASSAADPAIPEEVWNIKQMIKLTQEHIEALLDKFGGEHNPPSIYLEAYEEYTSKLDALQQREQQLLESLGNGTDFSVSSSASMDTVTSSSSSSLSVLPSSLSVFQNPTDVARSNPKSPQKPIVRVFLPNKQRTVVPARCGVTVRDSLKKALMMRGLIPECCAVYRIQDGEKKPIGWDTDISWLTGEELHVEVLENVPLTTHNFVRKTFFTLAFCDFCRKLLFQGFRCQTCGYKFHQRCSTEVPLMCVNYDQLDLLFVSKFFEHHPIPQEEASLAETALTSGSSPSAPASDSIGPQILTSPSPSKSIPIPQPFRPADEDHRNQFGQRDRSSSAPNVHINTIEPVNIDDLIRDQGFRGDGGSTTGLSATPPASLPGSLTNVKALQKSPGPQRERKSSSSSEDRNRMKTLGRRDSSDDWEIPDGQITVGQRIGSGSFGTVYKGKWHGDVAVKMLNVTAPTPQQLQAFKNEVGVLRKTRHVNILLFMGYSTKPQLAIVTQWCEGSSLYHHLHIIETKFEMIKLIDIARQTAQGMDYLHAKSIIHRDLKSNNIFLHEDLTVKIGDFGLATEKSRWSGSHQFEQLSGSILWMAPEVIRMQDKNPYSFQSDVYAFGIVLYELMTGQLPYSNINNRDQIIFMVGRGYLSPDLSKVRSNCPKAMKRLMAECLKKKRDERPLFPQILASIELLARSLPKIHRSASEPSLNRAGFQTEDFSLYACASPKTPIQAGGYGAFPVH
Excerpt: Sf9 cells co-expressing both proteins were lysed and subjected to immobilized nickel chromatography and eluted with Imidazole. A second column (StrepII binding column) was used and eluted with desthiobiotin. Protein Tags were removed using Prescission enzyme and the protein was further purified using a flowthrough step to remove tags.
Full length MEK1 with an inactivating K97R ATP binding site mutation is utilized as a RAF substrate. The MEK1 cDNA was subcloned with an N-terminal (his)6 tag into a vector for E. Coli expression. The MEK1 substrate was purified from E. Coli lysate by nickel affinity chromatography followed by anion exchange. The final MEK1 preparation was biotinylated (Pierce EZ-Link Sulfo-NHS-LC-Biotin) and concentrated.
Assay buffer: 50 mM Tris, pH 7.5, 15 mM MgCl2, 0.01% Bovine Serum Albumin (BSA), 1 mM dithiothreitol (DTT) Stop buffer: 60 mM ethylenediaminetetraacetic acid (EDTA), 0.01% Tween® 20
biotinylated Mek, kinase dead
384 well low volume assay plates (White Greiner® plates)
biotinylated Mek, Kinase dead approximately 10 nM
Pre-incubation time with compounds 60 minutes at room temperature
Reaction time 1 or 3 hours at room temperature
The plate was incubated for 60 minutes at room temperature.
The additions were carried out under dark conditions to protect the detection beads from light. A lid was placed on top of the plate and incubated for 1 hour at room temperature, then the luminescence was read on a PerkinElmer Envision instrument.
Consider `Cc1ccc(NC(=O)c2cccc(C(F)(F)F)c2)cc1-c1cc(N2CCOCC2)nc(N2CCOCC2)n1` [Example 10, N-(3-(2,6-dimorpholinopyrimidin-4-yl)-4-methylphenyl)-3-(trifluoromethyl)benzamide], for which the pIC50 is 9.52.

The assay is the same for the next values; noted with them: read-out: b-Raf IC-50; AlphaScreen, 60 min pre-incubation, reaction 3 hours at room temperature.
With `Cc1ccc(NC(=O)[C@@H]2CCN[C@H](C(F)(F)F)C2)cc1-c1cc(C2COCCO2)nc(N2CCOCC2)c1` (stereo in doubt) [Example 1132, N-(3-(2-(1,4-dioxan-2-yl)-6-morpholinopyridin-4-yl)-4-methylphenyl)-2-(trifluoromethyl)piperidine-4-carboxamide], the pIC50 is 6.57.

Still in this assay, the particulars now being: read-out: b-Raf IC-50; Table 2; AlphaScreen, 3 hours reaction.
Consider `Cc1ncc(NC(=O)c2cccc(C(F)(F)F)c2)cc1-c1cnc(OC2CCCC(O)C2)c(N2CCOCC2)c1` (single isomer, unassigned) [Example 320, N-(6′-((3-hydroxycyclohexyl)oxy)-2-methyl-5′-morpholino-[3,3′-bipyridin]-5-yl)-3-(trifluoromethyl)benzamide], for which the pIC50 is 8.77.

On to `Cc1ccc(NC(=O)c2cccc(C(F)(F)F)c2)cc1-c1cc(N2CCOCC2)ncn1` [Example 1, N-(4-methyl-3-(6-morpholinopyrimidin-4-yl)phenyl)-3-(trifluoromethyl)benzamide], for which the pIC50 was 9.52.

As for `Cc1ccc(NC(=O)c2ccnc(C(C)(C)C#N)c2)cc1-c1cc(N2CCOCC2)ncn1` [Example 2, 2-(2-cyanopropan-2-yl)-N-(4-methyl-3-(6-morpholinopyrimidin-4-yl)phenyl)isonicotinamide], the pIC50 was 8.32.

Turning to `Cc1ccc(NC(=O)c2cccc(C(F)(F)F)c2)cc1-c1cc(N2CCS(=O)(=O)CC2)nc(N2CCOCC2)n1` [Example 6, N-(3-(6-(1,1-dioxidothiomorpholino)-2-morpholinopyrimidin-4-yl)-4-methylphenyl)-3-(trifluoromethyl)benzamide], the pIC50 was 8.89.

Take `Cc1ccc(C(=O)Nc2cccc(C(F)(F)F)c2)cc1-c1cc(N2CCS(=O)(=O)CC2)nc(N2CCOCC2)n1` [Example 7, 3-(6-(1,1-dioxidothiomorpholino)-2-morpholinopyrimidin-4-yl)-4-methyl-N-(3-(trifluoromethyl)phenyl)benzamide]: the pIC50 was 8.60.

On to `Cc1ccc(NC(=O)c2cncc(N(C)C)c2)cc1-c1cc(N2CCOCC2)nc(N2CCOCC2)n1` [Example 18, 5-(dimethylamino)-N-(3-(2,6-dimorpholinopyrimidin-4-yl)-4-methylphenyl)nicotinamide], for which the pIC50 is 9.30.

Turning to `CCN1CCN(c2cc(C(=O)Nc3ccc(C)c(-c4cc(N5CCOCC5)nc(N5CCOCC5)n4)c3)cc(C(F)(F)F)c2)CC1` [Example 21, N-(3-(2,6-dimorpholinopyrimidin-4-yl)-4-methylphenyl)-3-(4-ethylpiperazin-1-yl)-5-(trifluoromethyl)benzamide], the pIC50 is 8.40.

For `Cc1ccc(NC(=O)c2cccc(OC(F)(F)F)c2)cc1-c1cc(N2CCOCC2)nc(N2CCOCC2)n1` [Example 22, N-(3-(2,6-dimorpholinopyrimidin-4-yl)-4-methylphenyl)-3-(trifluoromethoxy)benzamide], the pIC50 was 9.15.

Regarding `Cc1ccc(NC(=O)c2cccc(C(F)(F)F)c2)cc1-c1cc(N2CCOCC2)nc(NCCO)n1` [Example 31, N-(3-(2-((2-hydroxyethyl)amino)-6-morpholinopyrimidin-4-yl)-4-methylphenyl)-3-(trifluoromethyl)benzamide], the pIC50 was 9.15.

Consider `Cc1ccc(NC(=O)c2cccc(C(F)(F)F)c2)cc1-c1cc(N2CCOCC2)nc(-n2ccnc2)n1` [Example 33, N-(3-(2-(1H-imidazol-1-yl)-6-morpholinopyrimidin-4-yl)-4-methylphenyl)-3-(trifluoromethyl)benzamide], for which the pIC50 is 9.30.

Turning to `Cc1ccc(NC(=O)c2cccc(C(F)(F)F)c2)cc1-c1cc(N2CCOCC2)nc(OCCO)n1` [Example 40, N-(3-(2-(2-hydroxyethoxy)-6-morpholinopyrimidin-4-yl)-4-methylphenyl)-3-(trifluoromethyl)benzamide], the pIC50 was 9.10.

With `Cc1ccc(NC(=O)c2cccc(C(F)(F)F)c2)cc1-c1cc(N2CCOCC2)cnn1` [Example 59, N-(4-methyl-3-(5-morpholinopyridazin-3-yl)phenyl)-3-(trifluoromethyl)benzamide], the pIC50 was 8.55.

With `Cc1ccc(C(=O)Nc2cccc(C(F)(F)F)c2)cc1-c1cc(N2CCOCC2)ccn1` [Example 64, 4-methyl-3-(4-morpholinopyridin-2-yl)-N-(3-(trifluoromethyl)phenyl)benzamide], the pIC50 is 9.05.

For `Cc1ccc(NC(=O)c2cccnn2)cc1-c1ccnc(N2CCOCC2)c1` [Example 67, N-(4-methyl-3-(2-morpholinopyridin-4-yl)phenyl)pyridazine-3-carboxamide], the pIC50 was 6.30.

Take `Cc1ccc(NC(=O)c2cccc(S(C)(=O)=O)c2)cc1-c1ccnc(N2CCOCC2)c1` [Example 68, N-(4-methyl-3-(2-morpholinopyridin-4-yl)phenyl)-3-(methylsulfonyl)benzamide]: the pIC50 is 9.22.

For the compound `Cc1ccc(NC(=O)c2cnccn2)cc1-c1ccnc(N2CCOCC2)c1` [Example 70, N-(4-methyl-3-(2-morpholinopyridin-4-yl)phenyl)pyrazine-2-carboxamide], the pIC50 is 6.70.

For `Cc1ccc(NC(=O)c2ccnnc2)cc1-c1ccnc(N2CCOCC2)c1` [Example 72, N-(4-methyl-3-(2-morpholinopyridin-4-yl)phenyl)pyridazine-4-carboxamide], the pIC50 is 6.22.

For the compound `Cc1ccc(NC(=O)c2ccnc(S(C)(=O)=O)c2)cc1-c1ccnc(N2CCOCC2)c1` [Example 73, N-(4-methyl-3-(2-morpholinopyridin-4-yl)phenyl)-2-(methylsulfonyl)isonicotinamide], the pIC50 was 8.72.

Take `Cc1ncc(NC(=O)c2cccc(C(F)(F)F)c2)cc1-c1cc(N2CCOCC2)nc(N2CCOCC2)c1` [Example 77, N-(2-methyl-2′,6′-dimorpholino-[3,4′-bipyridin]-5-yl)-3-(trifluoromethyl)benzamide]: the pIC50 was 9.22.

Take `CC(F)(F)c1cc(C(=O)Nc2c[nH]c(=O)c(-c3ccnc(N4CCOCC4)c3)c2)ccn1` [Example 89, 2-(1,1-difluoroethyl)-N-(2′-morpholino-2-oxo-1,2-dihydro-[3,4′-bipyridin]-5-yl)isonicotinamide]: the pIC50 was 4.60.

On to `Cc1ccc(NC(=O)c2cccc(C(F)(F)F)c2)cc1-c1cc(N2CCOCC2)ccn1` [Example 111, N-(4-methyl-3-(4-morpholinopyridin-2-yl)phenyl)-3-(trifluoromethyl)benzamide], for which the pIC50 is 9.30.

In the case of `Cc1ncc(NC(=O)c2cccc(C(F)(F)F)c2)cc1-c1cnc(OC2CCOCC2)c(N2CCOCC2)c1` [Example 131, N-(2-methyl-5′-morpholino-6′-((tetrahydro-2H-pyran-4-yl)oxy)-[3,3′-bipyridin]-5-yl)-3-(trifluoromethyl)benzamide], the pIC50 is 8.74.

Turning to `Cc1ncc(NC(=O)c2cccc(C(F)(F)F)c2)cc1-c1cnc(OC(C)C)c(N2CCOCC2)c1` [Example 134, N-(6′-isopropoxy-2-methyl-5′-morpholino-[3,3′-bipyridin]-5-yl)-3-(trifluoromethyl)benzamide], the pIC50 was 8.62.
